# Like-named read-outs stand apart in the source and are kept apart here.
# Columns and labels:
# [1] = tested on: Streptococcus pyogenes
# [2] = tested on: Escherichia coli
# [3] = tested on: Pasteurella multocida; settings: strain 59A001
# [4] = tested on: Bacillus subtilis; settings: strain 06A001
# [5] = tested on: Hemophilus influenzae; settings: strain 54A036
# [6] = tested on: Providentia retgerii; settings: strain 77CA025
# [7] = tested on: Morgani morgansus; settings: strain 97A001
# [8] = tested on: Pseudomonas aeruginosa
# [9] = tested on: Serratia marcescens; settings: strain 63A017
# [10] = tested on: Enterobacter aeruginosa; settings: strain 67A040
# [11] = tested on: Enterobacter cloacea; settings: strain 67B009
# [12] = tested on: Providentia stuarti; settings: strain 77A013
# [13] = tested on: Neisseria sicca; settings: strain 66C000
# [14] = tested on: Staphylococcus aureus
# [15] = tested on: Klebsiella pneumoniae
# [16] = tested on: Staphylococcus epidermis
# [17] = tested on: Streptococcus pneumoniae; settings: strain 02J012
# [18] = tested on: Streptococcus faecalis; settings: strain 02A006
# [19] = tested on: Klebsiella oxytoca; settings: strain 53D024
substance,measurement,setting,value
"9(S)-Erythromycylamine 11,12-Carbonate",MIC,[1]; strain 02C040,0.78 µg/mL
same,MIC,[1]; strain 02C203,< .02 µg/mL
same,MIC,[2]; strain 51A125,25 µg/mL
same,MIC,[2]; strain 51A129,25 µg/mL
same,MIC,[2]; strain 51A266,25 µg/mL
same,MIC,[2]; strain 51A470,0.78 µg/mL
same,MIC,[3],0.39 µg/mL
same,MIC,[4],0.10 µg/mL
same,MIC,[5],3.12 µg/mL
same,MIC,[6],> 50 µg/mL
same,MIC,[7],> 50 µg/mL
same,MIC,[8]; strain 52A104,> 50 µg/mL
same,MIC,[8]; strain 52A663,> 50 µg/mL
same,MIC,[9],> 50 µg/mL
same,MIC,[10],50 µg/mL
same,MIC,[11],> 50 µg/mL
same,MIC,[12],> 50 µg/mL
same,MIC,[13],3.12 µg/mL
same,MIC,[14]; strain 01A005,0.20 µg/mL
same,MIC,[14]; strain 01A052,0.20 µg/mL
same,MIC,"[14]; strain 01A110R, R = resistant to erythromycin",> 50 µg/mL
same,MIC,"[14]; strain 01A400R, R = resistant to erythromycin",12.5 µg/mL
same,MIC,[15]; strain 53A009,50 µg/mL
same,MIC,[15]; strain 53A031,50 µg/mL
same,MIC,"[16]; strain 01B037R, R = resistant to erythromycin",> 50 µg/mL
same,MIC,[16]; strain 01B111,0.20 µg/mL
same,MIC,"[16]; strain 01B126R, R = resistant to erythromycin",> 50 µg/mL
same,MIC,[17],0.10 µg/mL
same,MIC,[18],0.39 µg/mL
same,MIC,[19],> 50 µg/mL

# — patent publication US4283527A, “Erythromycylamine 11,12-carbonate and derivatives thereof” (Pfizer Inc., priority 1980, dated 1981)
